5 molecules from US9549911B2, “Ginger metabolites and uses thereof” (North Carolina A&T State University, priority 2012, dated 2017) can be followed below.

pIC50: −log10 of the molar value.

One assay relates to HT-29 cells. Put plainly: Western blot analysis of apoptosis markers and p53 (Part 5). It is filed as cell-based, human. The conditions noted are these: HT-29 (p53 mutant), 24 hours; M2, 6S 10, 20 or 40 μM; 8S, M2′, 10S, M2″ 20 μM. As to the method: (§1) Cell lysates were prepared in ice-cold RIPA lysis buffer [25 mM Tris-HCl (pH 7.6), 150 mM NaCl, 1% NP-40, 1% sodium deoxycholate, 0.1% SDS, Thermo Fisher Scientific] supplemented with a protease inhibitor cocktail (AEBSF, aprotinin, bestatin, E-64, leupeptin and pepstatin A in DMSO with EDTA, Thermo Fisher Scientific). Protein content was measured by a Pierce BCA Assay Kit (Thermo Fisher Scientific). Protein contents of cell lysates (30 μg protein/lane) were resolved by SDS-PAGE. Proteins were then electro-transferred onto PVDF membranes and blots were blocked for one hour at room temperature in 1×TBS with 1% Casein (Bio-Rad Laboratories, Berkeley, Calif.). Blots were then incubated overnight at 4° C. with the desired primary antibody diluted in TBS with 0.5% Tween-20. Blots were then washed with TBS-Tween 20 and probed for 1 hour with the appropriate secondary antibody (1:1000). Protein bands were visualized with chemiluminescence using West Femto maximum detection substrate (Thermo Fisher Scientific). To confirm equal protein loading in each lane, immunoblots were stripped and re-probed for β-actin. Protein fold-induction was calculated by normalizing the intensity of the band of interest to β-actin first, and then to DMSO control lanes.
(In western blotting, separated proteins are transferred to a membrane and probed.)

For the next assay, the system named is HCT-116 cells. Described as above. The conditions noted are these: HCT-116 (p53 wild-type), 24 hours; M2, 6S 10, 20 or 40 μM; 8S, M2′, 10S, M2″ 20 μM. It is filed as cell-based, human. The procedure: as §1
For assay [1], the system named is human colon cancer cells HT-29. In words: MTT toxicity in colon cancer and normal colon cells (Part 5). It is filed as cell-based. Particulars: HT-29 (p53 mutant), 24 hours. The procedure:
(§2) Cell viability was determined by an MTT colorimetric assay. […] The reading reflected the number of viable cells and was expressed as a percentage of viable cells in the control. CCD-18Co cells were grown in EMEM. Both HCT-116 and HT-29 cells were cultured in McCoy's 5A medium. All of the above media were supplemented with 10% fetal bovine serum, 1% penicillin/streptomycin, and 1% glutamine, and the cells were kept in a 37° C. incubator with 95% humidity and 5% CO2.

Assay [2] concerns human colon cancer cells HCT-116. Described as above. Particulars: HCT-116, 24 hours. It is filed as cell-based. The procedure: as §2
Assay [3] relates to human colon fibroblast cells CCD-18Co. The description is as above. It is filed as cell-based. The conditions noted are these: normal colon cells CCD-18Co, 24 hours. The procedure: as §2
In assay [4] the test system is human colon cancer cells HCT-116. Put plainly: MTT growth inhibition by M14 and M15 (Part 3). It is filed as cell-based. Particulars: Homo sapiens; HCT-116, 24 hours, 0 to 80 μM; read-out: IC50 (cell viability, MTT). As to the method:
(§3) Cell growth inhibition was determined by a MTT colorimetric assay. […] The reading reflected the number of viable cells and was expressed as a percentage of viable cells in the control. Both HCT-116 and H-1299 cells were cultured in McCoy's 5A medium. All of the above media were supplemented with 10% fetal bovine serum, 1% penicillin/streptomycin, and 1% glutamine, and the cells were kept in a 37° C. incubator with 95% humidity and 5% CO2.

For assay [5], the system named is human lung cancer cells H-1299. In words: MTT growth inhibition by M14 and M15 (Part 3). It counts as cell-based. The conditions noted are these: Homo sapiens, NCI-H1299; H-1299, 24 hours, 0 to 80 μM; read-out: IC50 (cell viability, MTT). The procedure:
as §3

Assay [6] has as its system human colon cancer cells HCT-116. In words: Cell Death Detection ELISA apoptosis induction (Part 3). The conditions noted are these: 24 hours. It is filed as cell-based. As to the method: (§4) Human colon cancer cells HCT-116 and human lung cancer cells H-1299 were plated in 96-well plates at a density of 5000 cells/well and allowed to attach overnight at 37° C. M14, M15, or [6]-shogaol in DMSO, or DMSO control, diluted in media, were added to cells and incubated for an additional 24 hours at 37° C. After 24 hours, media containing compound was removed and cells were lysed in their respective wells with reagents from a Cell Death Detection ELISA^PLUS kit from Roche Applied Science (Mannheim, Germany). Samples were harvested after cell lysates were spun down at 300 g for 10 minutes. To streptavidin coated microplates, 20 μL samples were added, and mixed with 80 μL Immunoreagent, which consisted of anti-histone-biotin, and anti-DNA-POD, and incubated with gentle shaking for 2 hours at room temperature. After incubation, Immunoreagent was removed and samples were washed 3 times with 250 μL incubation buffer. Substrate solution, ABTS, was added to each well and color was developed for 15 minutes before stopping the reaction with ABTS stop solution and reading absorbance on a microplate reader at 430 nm. Experiments were performed in triplicate and the average is given in comparison to DMSO control with standard deviation.
A general note: An ELISA detects its analyte on a solid surface through an enzyme-linked reagent.

Assay [7] concerns human lung cancer cells H-1299. Described as above. Particulars: 24 hours. It counts as cell-based. The procedure: as §4
A short description of assay [8]: Chemical inhibition of [6]-shogaol metabolism in liver microsomes. It counts as in vitro ADME, human. Particulars: inhibitor 500 μM, 20 min pre-incubation, [6]-shogaol 50 μM, 30 min. As to the method: Inhibitors ABT (500 μM) and 18β-GA (500 μM) or DMSO controls were pre-incubated with microsomes in experimental incubation mixture at 37° C. for 20 minutes before initiating the reaction by the addition of [6]-shogaol (50 μM). Reactions were terminated 30 minutes after substrate addition and incubation in a 37° C. water bath by equal volume of ice-cold acetonitrile with 2% acetic acid. The mixture was vortexed and underwent centrifugation at 13,000 g for 10 minutes. Aliquots of supernatant were stored at −20° C. until analysis.
On the technique in general: Microsomes from liver hold many membrane-bound enzymes, among them those of drug oxidation.

The subject of the next assay is A549 lung cancer cells. Particulars: 6S 30 mg/kg, M2 30 mg/kg, M14 10 mg/kg, oral gavage 5×/week, 7 weeks. The procedure: Nu/J nude mice were obtained from Jackson Laboratories (Bar Harbor, Me.). Animals were randomized into 4 groups. A549 cells (5×10^6 cells) were implanted in both flanks of 8-weeks old Nu/J mice. One week after implantation, animals were given 100 μl of the following treatments through oral gavage 5 times/week: DMSO 0.25 ml/kg (control; n=4); 6S 10 mg/kg (n=4); 6S 30 mg/kg (n=4) or M2 30 mg/kg (n=5). Compounds were diluted in a solution of 5% DMSO in corn oil. Animal body weight and tumor volume were recorded for the duration of the experiment. Tumor volume was calculated by measuring the length and width of the tumors using a digital caliper and using the formula (Length×Width^2)/2. One hour before sacrifice, mice were given one last treatment dose as well as one intra-peritoneal injection of BrdU (7.5 mg/kg in 100 μl PBS). After 7 weeks, tumor tissues were harvested and weighed. A portion of the tumors was snap frozen in liquid nitrogen and another portion was placed in a histology cassette and immersed in formalin solution.
[…] tissues were sent to Precision Histology Lab (Oklahoma City, Okla.) for embedding in paraffin blocks. Then paraffin blocks were processed into 3-4 μm sections that were then put on microscope slides. Sections were then deparaffinized by using a succession of 3 baths of xylene (5 minutes each), 2 baths of absolute ethanol (5 minutes each), 95% ethanol for 3 minutes, 70% ethanol for 3 minutes, and rinsed in PBS. Immunostaining with TUNEL (terminal deoxynucleotidyl transferase dUTP nick end labeling) and BrdU staining kits was performed following manufacturer's recommendation. For staining quantification, sequential high-power field pictures of tumors were taken (10 pictures per tumor) using an A1 Zeiss microscope (Oberkochen, Germany). Images were processed using the Image J software, which was used to count positive, brown-colored cells in each field. Average number per tumor was calculated by averaging the number obtained for each field, and the average number of positive cells per group was obtained by averaging the values of each tumor belonging to the experimental group.
8 week-old nude mice (Jackson Laboratory, Maine) were randomized into 5 groups based on treatment (DMSO: n=4; 6S 10 mg/kg: n=4 (“6S 10”); 6S 30 mg/kg: n=4 (“6S 30”); M2 30 mg/kg: n=5 (“M2 30”); M14 10 mg/kg: n=4 (“M14 10”)). Animals were implanted with 5×10^6 A549 lung cancer cells (adenocarcinomic human alveolar basal epithelial cells) on each flank. The mice had access to food and water ad libitum. One week post implantation, the animals started receiving their respecting treatments through oral gavage (100 μl in corn oil and 5% DMSO), 5×/week. After 7 weeks of treatment, the tumor tissues were harvested.

As for `CCCCCCC/C=C/C(=O)CCc1ccc(O)c(OC)c1` [8S, [8]-shogaol, reference compound], the “p53 expression (Western blot)” value in the assay on HT-29 cells and in the assay with HCT-116 cells was “increase in p53 accumulation” each time. For the same molecule, the pIC50 (commonly the negative decadic logarithm of the IC50, by convention in mol/L) in assay [1] was 4.55; in [2] it was 4.64; in assay [3] it was 3.98.
Consider `CCCCCCCC(=O)/C=C/c1ccc(O)c(OC)c1` [M15, (E)-1-(4′-hydroxy-3′-methoxyphenyl)-dec-1-en-3-one], for which the values for the pIC50 in assay [4] and in assay [5] were 4.37 and 4.38, respectively. The “induction of apoptosis compared to DMSO control” value in assay [6] (HCT-116, 10 μM) is 1 fold; in assay [7] (H-1299, 10 μM) it was roughly 2 fold.
Turning to `Nn1nnc2ccccc21` [ABT, 1-Aminobenzotriazole], in assay [8], the “effect on oxidative metabolism of [6]-shogaol” value is recorded as “abrogated” and the “effect on reductive metabolism of [6]-shogaol” value is on record as “did not inhibit reductive metabolism”.
For `CCCCC/C=C/C(=O)/C=C/c1ccc(O)c(OC)c1` [M14, (1E, 4E)-1-(4′-hydroxy-3′-methoxyphenyl)-deca-1,4-dien-3-one], the “tumor size versus control group” value with A549 lung cancer cells is recorded as “Reduction in tumor size”. Also, the pIC50 in assay [4] was 5.49; in assay [5], 5.52. For the same molecule, the “induction of apoptosis compared to DMSO control” value is reported as 2 fold in assay [6] (HCT-116, 1 μM); “about 6 fold” in [6] (HCT-116, 10 μM); 1 fold in assay [7] (H-1299, 1 μM); 7-8 fold in assay [7] (H-1299, 10 μM).
As for `CCCCCCCCC/C=C/C(=O)CCc1ccc(O)c(OC)c1` [10S, [10]-shogaol, reference compound], the “p53 expression (Western blot)” value in the assay on HT-29 cells and with HCT-116 cells was “increase in p53 accumulation” throughout. The pIC50 in [1] is 4.62; in assay [2], 4.60; in assay [3], 3.87.
